From ChEMBL document CHEMBL1201862, “PubChem BioAssay data set” (2004)
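Exposure lasted 48 hours, with cells grown in 96-well plates and compounds tested at five concentrations. At the GI50, growth is halved.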 Activity calls are given as the source filed them. No stated cut-off is given here; in the data, active = GI50 up to about 1.1 µM and inactive = higher.

Assays:
Experiment in all cases: NCI anticancer screen, dose series, 48 h
OVCAR-8 = test system: OVCAR-8
RXF 393 = test system: RXF 393
SF-539 = test system: SF-539
SK-MEL-28 = test system: SK-MEL-28
NCI-H460 = test system: NCI-H460
HCT-116 = test system: HCT-116
MDA-MB-435 = test system: MDA-MB-435
TK-10 = test system: TK-10
SNB-75 = test system: SNB-75
SNB-19 = test system: SNB-19
LOX IMVI = test system: LOX IMVI
A498 = test system: A498
EKVX = test system: EKVX
HOP-62 = test system: HOP-62
SR = test system: SR
RPMI-8226 = test system: RPMI-8226
HCT-15 = test system: HCT-15
MOLT-4 = test system: MOLT-4
KM12 = test system: KM12
CAKI-1 = test system: CAKI-1

SMILES	GI50 (OVCAR-8)	GI50 (RXF 393)	GI50 (SF-539)	GI50 (SK-MEL-28)	GI50 (NCI-H460)	GI50 (HCT-116)	GI50 (MDA-MB-435)	GI50 (TK-10)	GI50 (SNB-75)	GI50 (SNB-19)	GI50 (LOX IMVI)	GI50 (A498)	GI50 (EKVX)	GI50 (HOP-62)	GI50 (SR)	GI50 (RPMI-8226)	GI50 (HCT-15) [µM]	GI50 (MOLT-4)	GI50 (KM12)	GI50 (CAKI-1)
N#CCOc1ccc(/C=C/C(=O)c2ccc(Cl)cc2)cc1	32.1 µM (inactive)	17.5 µM (inactive)	19.2 µM (inactive)	33.7 µM (inactive)	27.2 µM (inactive)	6.65 µM (inactive)	28.8 µM (inactive)	28.5 µM (inactive)	19.5 µM (inactive)	22.8 µM (inactive)	15.6 µM (inactive)	20.8 µM (inactive)	39.6 µM (inactive)	25.2 µM (inactive)	37.5 µM (inactive)	23.1 µM (inactive)	77.6	19.6 µM (inactive)	22.4 µM (inactive)	–
O=C(/C=C1/Nc2ccc([N+](=O)[O-])cc2N/C1=C/C(=O)c1ccc(Cl)cc1)c1ccc(Cl)cc1	54.8 µM (inactive)	66.5 µM (inactive)	> 100 µM (inactive)	–	42.9 µM (inactive)	15 µM (inactive)	> 100 µM (inactive)	> 100 µM (inactive)	> 100 µM (inactive)	> 100 µM (inactive)	–	10.1 µM (inactive)	> 100 µM (inactive)	> 100 µM (inactive)	> 100 µM (inactive)	–	24.2	> 100 µM (inactive)	> 100 µM (inactive)	> 100 µM (inactive)
CN1CC2=C(OC(N)=C(C#N)C2c2cccs2)/C(=C/c2cccs2)C1 (stereo not given)	6.44 µM (inactive)	10.1 µM (inactive)	48.8 µM (inactive)	> 57.9 µM (inactive)	17.7 µM (inactive)	8.43 µM (inactive)	6.1 µM (inactive)	> 51.2 µM (inactive)	–	> 59.3 µM (inactive)	13.9 µM (inactive)	21.8 µM (inactive)	6.01 µM (inactive)	19.3 µM (inactive)	4.17 µM (inactive)	4.45 µM (inactive)	15.5	2.43 µM (inactive)	9.12 µM (inactive)	38.8 µM (inactive)
CN1CCN(Cn2nc(-c3ccccc3)n(/N=C/c3ccc(-c4ccc(Cl)cc4Cl)o3)c2=S)CC1	8.45 µM (inactive)	4.22 µM (inactive)	13.5 µM (inactive)	12.1 µM (inactive)	5.61 µM (inactive)	3.66 µM (inactive)	11.4 µM (inactive)	15.1 µM (inactive)	–	–	13 µM (inactive)	26 µM (inactive)	30.1 µM (inactive)	11.4 µM (inactive)	1.51 µM (inactive)	8.61 µM (inactive)	4.18	0.0713 µM (active)	9.73 µM (inactive)	7.36 µM (inactive)
COc1ccc(/C=C2\N=C(c3ccccc3)N(NC3=NC(=O)CC(=O)N3)C2=O)cc1	> 100 µM (inactive)	> 100 µM (inactive)	> 100 µM (inactive)	> 100 µM (inactive)	> 100 µM (inactive)	> 100 µM (inactive)	> 100 µM (inactive)	> 100 µM (inactive)	> 100 µM (inactive)	> 100 µM (inactive)	–	> 100 µM (inactive)	–	> 100 µM (inactive)	> 100 µM (inactive)	> 100 µM (inactive)	> 100	> 100 µM (inactive)	> 100 µM (inactive)	> 100 µM (inactive)
CCN(CC)c1ccc(C2NC(=O)c3ccccc3N2)cc1 (stereo not given)	3.62 µM (inactive)	7.52 µM (inactive)	2.71 µM (inactive)	> 100 µM (inactive)	1.21 µM (inactive)	1.48 µM (inactive)	0.698 µM (active)	> 100 µM (inactive)	–	17.1 µM (inactive)	2.95 µM (inactive)	4.95 µM (inactive)	5.24 µM (inactive)	5.7 µM (inactive)	0.557 µM (active)	3.37 µM (inactive)	1.13	3.55 µM (inactive)	2.15 µM (inactive)	2.82 µM (inactive)
